Experimental data reported in patent publication US4690920A, “Derivative of cephalosporanic acid and pharmaceutical composition comprising the same” (Kureha Kagaku Kogyo Kabushiki Kaisha, priority 1982, dated 1987).

What was measured:
Pseudomonas aeruginosa = test: Effect on the intestinal bacterial colonies: number of Pseudomonas aeruginosa in feces; type: in vivo, Pseudomonas aeruginosa (feces of female ICR mice); details: oral, 500 mg/kg/day for 2 days; feces one day after administration; before administration <3.0
Procedure: (§1) After collecting the feces of a group of mice, each of the compounds represented by the formula (I) was orally administered to each of the group for 2 continued days at a daily dose rate of 500 mg per kg body weight, and the feces were again collected one day after the administration. Each portion of the thus collected, two kinds of the feces was cultured at 25° C. or 37° C. in a variety of culture media for one to five days to see the state of growth of the following bacteria which are present habitually in the intestine of the mouse: Escherichia coli, Pseudomonas aeruginosa, a streptococcus bacterial species, a lactobacillis bacteria, Lactobacillus bifidus and a bacterioides bacteria.
(§2) Each of the compounds, respectively produced in Examples 1 to 6 was orally administered for two continued days at a daily dosage of 500 mg/kg body weight to each of five female ICR mice of a group after 6 weeks of birth.
(§3) Each of the two fecal specimens respectively collected before and after one day of the administration was diluted with 100 times by weight of an anaerobic diluent (a phosphoric buffer solution) and was ground in a mortar, and 0.1 ml of the ground material was smeared on each of the following culture media for the following bacteria and the thus inoculated culture media were incubated under the following conditions. Thereafter, the number of the following bacteria was determined on each culture medium.
NAC agar 37° C., for 1 day, […]

[1] = tested on: A species of Bacterioides; test: Effect on the intestinal bacterial colonies: number of a species of Bacterioides in feces; type: in vivo, Bacteroides (feces of female ICR mice); details: oral, 500 mg/kg/day for 2 days; feces one day after administration; before administration 8.1
Procedure: as §1, §2, §3
a species of NBGT agar 37° C., for 5 days,7 -Bacteroides anaer

[2] = tested on: Staphylococcus aureus IAM 1011; test: Anti-bacterial activity, agar plate dilution method (MIC), Staphylococcus aureus; type: cell-based; details: 18 to 24 hours, 37° C.; for Minimum concentration of inhibiting growth of Staphylococcus aureus (MIC): Mueller-Hinton agar
Procedure: (§4) 3-1: The minimum growth-inhibiting concentration (MIC) of each of the compounds represented by the formula (I) was measured according to the standard procedures of Japan Society of Chemotherapy against each of the following bacterial species:
Staphylococcus aureus, IAM 1011
(§5) Anti-bacterial activity of each of the compounds produced in Examples 1 to 6 was measured according to the standard procedures of Japan Society of Chemotherapy in agar plate dilution method as follows:
(§6) As a test bacterial species, Escherichia coli IFO 12734 and Staphylococcus aureus IAM 1011, and each strain was inoculated into Mueller-Hinton's culture medium for 18 to 48 hours at 37° C., and while using the thus cultured bacteria, each of the test bacterial liquid containing 10^6 cells in one ml was prepared.
(§7) Separately, after preparing each series of diluted aqueous solutions of each of the compounds produced in Examples 1 to 6, respectively, each of them was mixed in amount of 1/9 time by weight with the Mueller-Hinton's culture medium and each flat agar culture plate was prepared by using the thus formed mixture.

[3] = tested on: A species of Lactobacillus; test: Effect on the intestinal bacterial colonies: number of a species of Lactobacillus in feces; type: in vivo, Lactobacillus (feces of female ICR mice); details: for Log10 value of the number of bacterial cells/g of feces, a species of Lactobacillus: oral, 500 mg/kg/day for 2 days, feces one day after administration, before administration 9.0
Procedure: as §1, §2, §3
a species of LBS agar 37° C., for 5 days, […]

[4] = tested on: Escherichia coli IFO 12734; test: Anti-bacterial activity, agar plate dilution method (MIC), Escherichia coli; type: cell-based; details: 18 to 24 hours, 37° C.; for Minimum concentration of inhibiting growth of Escherichia coli (MIC): Mueller-Hinton agar
Procedure: as §4
Escherichia coli, IFO 12734 and
as §5, §6, §7

[5] = tested on: Staphylococcus aureus IAM 1011; test: Model test for verifying the activation in living body: growth-inhibition circle with/without rat liver S-9 mix; type: cell-based; details: 20 min at 37° C., then 18 hours at 37° C.; for Sign: diameter of growth-inhibiting circle as percentage of that due to compound of formula (II), with the addition of S-9 mix: with the addition of S-9 mix (rat liver homogenate)
Procedure: On each flat culture plate prepared by adding 10^8 cells/ml of a preliminarily cultured Staphylococcus aureus IAM 1011 into 50 times by weight of Mueller-Hinton's agar culture medium, a penicillin cup of 8 mm in diameter was placed, and into each cup 0.1 ml of each of the compounds represented by the formula (I) or 0.1 ml of a cultured product of each of the compounds represented by the formula (I) together with a rat liver homogenate (containing a metabolism-activating enzyme, referred to as S-9 mix) was introduced. The diameter of each growth-inhibition circle formed around the cup after incubating the flat culture plate with the cup for 18 hours at 37° C. was measured, and the thus obtained value was compared to the value obtained by the same procedures except for using the compound represented by the formula (II), the starting compound instead of each of the compounds represented by the formula (I).
As a metabolism-activating enzyme, a rat liver homogenate (S-9, manufactured by Oriental Yeast Co.) was used in the following composition (referred to as S-9 mix, hereinafter):
After mixing 0.1 ml of a solution of the compound to be tested with 0.9 ml of S-9 mix or 0.9 ml of 0.1M phosphoric acid buffer solution, the mixture was subjected to shaking culture for 20 min at 37° C. to prepare a test reaction solution for use in the following experiment.
Staphylococcus aureus IAM 1011 was inoculated to Mueller-Hinton's culture medium and the inoculum was cultured for 18 hours at 37° C. and after adjusting the number of the bacterial cells to 10^8 /ml of the culture medium, 50 times by weight of the Mueller-Hinton's agar culture medium were added to the cultured medium to prepare flat culture plates.
After placing a penicillin-cup of 8 mm in diameter on each of the thus prepared flat culture plates, 0.1 ml of the above-mentioned test reaction solution was introduced into the penicillin-cup, and after leaving the system for 2 hours at 4° C., the system was incubated for 18 hour at 37° C., and the diameter of the growth-inhibition circle around the cup on the culture plate was determined.
The thus obtained diameter of the growth-inhibiting circle due to each of the compounds produced respectively in Examples 1 to 6 was compared to that due to the compound repesente by the formula (II), substituted cephalosporanic acid by percentage, and the following signs were respectively given to the respective compounds as follows: […]

Lactobacillus bifidus = test: Effect on the intestinal bacterial colonies: number of Lactobacillus bifidus in feces; type: in vivo, Lactobacillus bifidus (feces of female ICR mice); details: oral, 500 mg/kg/day for 2 days; feces one day after administration; before administration 8.0
Procedure: as §1, §2, §3
BS agar 37° C., for 5 days, […]

Escherichia coli = test: Effect on the intestinal bacterial colonies: number of Escherichia coli in feces; type: in vivo, Escherichia coli (feces of female ICR mice); details: for Log10 value of the number of bacterial cells/g of feces, Escherichia coli: oral, 500 mg/kg/day for 2 days, feces one day after administration, before administration 7.0
Procedure: as §1, §2, §3
DHL agar 37° C., for 1 day, […]

[6] = tested on: A species of Streptococcus; test: Effect on the intestinal bacterial colonies: number of a species of Streptococcus in feces; type: in vivo, Streptococcus (feces of female ICR mice); details: oral, 500 mg/kg/day for 2 days; feces one day after administration; before administration 6.4
Procedure: as §1, §2, §3
a species of TATAC agar 37° C., for 1 day, […]

[7] = compared to that before administration

Row | Minimum concentration of inhibiting growth of Staphylococcus aureus (MIC) [2] | Minimum concentration of inhibiting growth of Escherichia coli (MIC) [4] | MIC ([2]; IAM1011, Mueller-Hinton agar, read-out: Minimum concentration of inhibiting growth of Staphylococcus aureus (MIC)) | MIC ([4]; IFO12734, Mueller-Hinton agar, read-out: Minimum concentration of inhibiting growth of Escherichia coli (MIC)) | SMILES | Log10 value of the number of bacterial cells/g of feces, Pseudomonas aeruginosa (Pseudomonas aeruginosa) | Log10 value of the number of bacterial cells/g of feces, a species of Bacterioides [1] | Log10 value of the number of bacterial cells/g of feces, a species of Lactobacillus [3] | Sign: diameter of growth-inhibiting circle as percentage of that due to compound of formula (II), with the addition of S-9 mix [5] | Sign: diameter of growth-inhibiting circle as percentage of that due to compound of formula (II), without adding S-9 mix [5] | Log10 value of the number of bacterial cells/g of feces, Lactobacillus bifidus (Lactobacillus bifidus) | Log10 value of the number of bacterial cells/g of feces, Escherichia coli (Escherichia coli) | Log10 value of the number of bacterial cells/g of feces, a species of Streptococcus [6] | number of a certain species of Lactobacillus after administration (in words) [3, 7] | number of cells of Escherichia coli after administration (in words) (Escherichia coli; [7])
1 | ≥ 100 microgram/ml | ≥ 100 microgram/ml | – | – | COC1(NC(=O)CSCC#N)C(=O)N2C(C(=O)Nc3ccc(C)cc3)=C(CSc3nnnn3C)CSC21 (stereo not drawn) [Example 6, N-(4-methylphenyl)-{7-beta-cyanomethylthioacetamido-7-alpha-methoxy-3-[(1-methyl-1H-tetrazol-5-yl)thio]methyl-3-cepheme-4-carboxylic}amide] | < 3.0 Log10 cells/g of feces | 8.0 Log10 cells/g of feces | 9.2 Log10 cells/g of feces | + (1 to 33) | - (0) | 8.0 Log10 cells/g of feces | 6.9 Log10 cells/g of feces | 6.3 Log10 cells/g of feces | – | –
2 | – | – | ≥ 100 µg/mL | ≥ 100 µg/mL | COC(=O)Cc1ccc(NC(=O)C2=C(CSc3nnnn3C)CS[C@H]3N2C(=O)[C@]3(NC(=O)CSCC#N)OC)cc1 [Example 3, N-(4-carbomethoxymethylphenyl)-{7-betacyanomethylthioacetamido-7-alpha-methoxy-3-[(1-methyl-1H-tetrazol-5-yl)thio]methyl-3-cepheme-4-carboxylic}amide] | < 3.0 Log10 cells/g of feces | 8.0 Log10 cells/g of feces | 9.1 Log10 cells/g of feces | ± (0 to 1) | - (0) | 7.9 Log10 cells/g of feces | 7.1 Log10 cells/g of feces | 6.0 Log10 cells/g of feces | – | –

More lines, now with the values behind:

Row | SMILES | Minimum concentration of inhibiting growth of Staphylococcus aureus (MIC) [2] | Minimum concentration of inhibiting growth of Escherichia coli (MIC) [4] | MIC ([2]; IAM1011, Mueller-Hinton agar, read-out: Minimum concentration of inhibiting growth of Staphylococcus aureus (MIC)) | MIC ([4]; IFO12734, Mueller-Hinton agar, read-out: Minimum concentration of inhibiting growth of Escherichia coli (MIC)) | Log10 value of the number of bacterial cells/g of feces, Pseudomonas aeruginosa (Pseudomonas aeruginosa) | Log10 value of the number of bacterial cells/g of feces, a species of Bacterioides [1] | Log10 value of the number of bacterial cells/g of feces, a species of Lactobacillus [3] | Sign: diameter of growth-inhibiting circle as percentage of that due to compound of formula (II), with the addition of S-9 mix [5] | Sign: diameter of growth-inhibiting circle as percentage of that due to compound of formula (II), without adding S-9 mix [5] | Log10 value of the number of bacterial cells/g of feces, Lactobacillus bifidus (Lactobacillus bifidus) | Log10 value of the number of bacterial cells/g of feces, Escherichia coli (Escherichia coli) | Log10 value of the number of bacterial cells/g of feces, a species of Streptococcus [6] | number of a certain species of Lactobacillus after administration (in words) [3, 7] | number of cells of Escherichia coli after administration (in words) (Escherichia coli; [7])
3 | COC1(NC(=O)CSCC#N)C(=O)N2C(C(=O)Nc3ccc(C(=O)O)cc3)=C(CSc3nnnn3C)CSC21 (stereo not drawn) [Example 1, N-(4-carboxyphenyl)-{7-beta-cyanomethylthioacetamido-7-alpha-methoxy-3-[(1-methyl-1H-tetrazol5-yl)thio]methyl-3-cepheme-4-carboxylic}amide] | ≥ 100 microgram/ml | ≥ 100 microgram/ml | – | – | < 3.0 Log10 cells/g of feces | 8.1 Log10 cells/g of feces | 8.9 Log10 cells/g of feces | + (1 to 33) | - (0) | 8.0 Log10 cells/g of feces | 7.2 Log10 cells/g of feces | 6.0 Log10 cells/g of feces | – | –
4 | COC(=O)c1ccc(NC(=O)C2=C(CSc3nnnn3C)CSC3N2C(=O)C3(NC(=O)CSCC#N)OC)cc1 (stereo not drawn) [Example 2, N-(4-carbomethoxyphenyl)-{7-beta-cyanomethylthioacetamido-7-alpha-methoxy-3-[(1-methyl-1H-tetrazol-5-yl)thio]methyl-3-cepheme-4-carboxylic}amide] | ≥ 100 microgram/ml | ≥ 100 microgram/ml | – | – | < 3.0 Log10 cells/g of feces | 8.0 Log10 cells/g of feces | 9.1 Log10 cells/g of feces | + (1 to 33) | - (0) | 8.0 Log10 cells/g of feces | 6.6 Log10 cells/g of feces | 6.2 Log10 cells/g of feces | – | –
5 | CO[C@@]1(NC(=O)CSCC#N)C(=O)N2C(C(=O)O)=C(CSc3nnnn3C)CS[C@@H]21 [CEFMETAZOLE, reference compound] | – | – | – | – | 7.0 Log10 cells/g of feces | 4.6 Log10 cells/g of feces | 4.0 Log10 cells/g of feces | – | – | 3.8 Log10 cells/g of feces | < 3.0 Log10 cells/g of feces | < 3.0 Log10 cells/g of feces | showed a reduction | showed an increase
